Data reported in ChEMBL document CHEMBL1955803, “Preclinical in vivo evaluation of efficacy, pharmacokinetics, and pharmacodynamics of a novel MEK1/2 kinase inhibitor RO5068760 in multiple tumor models” (Mol Cancer Ther, 2010).
Activity calls are given as the source filed them. The rule behind the calls is not given here.

What was measured:
[1] = Drug level in human HT-29 cells expressing B-Raf V600E mutant xenografted nude mouse tumor at 50 mg/kg, po after 8 hrs; assay type: ADME, organism-based, Neoplasm; set-up: dose 50 mg/kg, route oral; conditions: read-out: Drug uptake
[2] = target: T1, Dual specificity mitogen-activated protein kinase kinase; MEK1/2 (Homo sapiens) (UniProt P36507+Q02750); conditions: HT-29, 2 to 10 uM
T1 sequence (P36507 whole entry, looked up): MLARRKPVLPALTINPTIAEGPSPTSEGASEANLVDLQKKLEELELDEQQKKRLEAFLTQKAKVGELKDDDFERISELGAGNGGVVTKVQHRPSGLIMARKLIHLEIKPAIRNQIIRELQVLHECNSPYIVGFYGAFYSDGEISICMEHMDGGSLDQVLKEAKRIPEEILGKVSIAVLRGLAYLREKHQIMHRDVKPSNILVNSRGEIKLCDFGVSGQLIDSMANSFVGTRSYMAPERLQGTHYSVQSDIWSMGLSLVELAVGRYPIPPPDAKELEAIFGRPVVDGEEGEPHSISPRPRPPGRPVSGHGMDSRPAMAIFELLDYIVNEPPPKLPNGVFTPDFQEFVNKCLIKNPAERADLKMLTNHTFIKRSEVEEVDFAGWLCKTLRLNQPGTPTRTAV
T1 sequence (Q02750 whole entry, looked up): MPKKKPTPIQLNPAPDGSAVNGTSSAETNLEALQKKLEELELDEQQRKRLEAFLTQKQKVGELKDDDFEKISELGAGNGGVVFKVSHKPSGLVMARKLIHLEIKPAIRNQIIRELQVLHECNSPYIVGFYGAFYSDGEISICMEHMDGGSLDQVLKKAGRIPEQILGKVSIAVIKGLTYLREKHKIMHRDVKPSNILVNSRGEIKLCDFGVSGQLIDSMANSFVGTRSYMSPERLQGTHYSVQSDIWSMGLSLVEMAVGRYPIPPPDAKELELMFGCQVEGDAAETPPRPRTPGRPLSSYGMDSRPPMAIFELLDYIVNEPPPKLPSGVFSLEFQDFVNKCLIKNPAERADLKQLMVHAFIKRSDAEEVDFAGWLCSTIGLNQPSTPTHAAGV
Description: Inhibition of MEK1/2 phosphorylation in human HT-29 cells at 2 to 10 uM by Western blot analysis

[3] = AUC (0 to 12 hrs) in human H460 cells expressing K-Ras Q61H mutant xenografted nude mouse at 100 mg/kg, po bid; assay type: ADME, organism-based; set-up: time < 12 hr, dose 100 mg/kg, route oral; conditions: in vivo
[4] = Antitumor activity against human LOX cells expressing B-Raf V600E mutant xenografted in nude mouse assessed as tumor growth inhibition at 50 mg/kg, po bid; assay type: functional; conditions: read-out: GI
HT-29 [5] = test: Induction of apoptosis in human HT-29 cells; assay type: functional, cell-based
Mus musculus [6] = test: Inhibition of MEK-mediated ERK phosphorylation in po dosed human HT-29 cells expressing B-Raf V600E mutant xenografted nude mouse plasma by Western blot analysis; assay type: functional, organism-based; conditions: HT-29, Plasma
[7] = Plasma concentration in human LOX cells expressing B-Raf V600E mutant xenografted nude mouse at 100 mg/kg, po after 1 hr; assay type: ADME, organism-based; set-up: dose 100 mg/kg, route oral
[8] = Antitumor activity against human LOX cells expressing B-Raf V600E mutant xenografted in nude mouse assessed as tumor growth inhibition at 25 mg/kg, po bid; assay type: functional; conditions: read-out: GI
[9] = Drug level in human LOX cells expressing B-Raf V600E mutant xenografted nude mouse tumor at 100 mg/kg, po after 2 hrs; assay type: ADME, organism-based, Neoplasm; set-up: dose 100 mg/kg, route oral; conditions: read-out: Drug uptake
Mus musculus [10] = test: Toxicity in human LOX cells expressing B-Raf V600E mutant xenografted nude mouse assessed as gross signs of adverse effect at 500 mg/kg, po administered weekly once for 3 weeks; assay type: organism-based; set-up: dose 500 mg/kg, route oral; conditions: in vivo, 504 h
[11] = Plasma concentration in human HT-29 cells expressing B-Raf V600E mutant xenografted nude mouse at 50 mg/kg, po after 8 hrs; assay type: ADME, organism-based; set-up: dose 50 mg/kg, route oral
[12] = target: T1, Dual specificity mitogen-activated protein kinase kinase; MEK1/2 (Homo sapiens); conditions: LOX, 2 to 10 uM
Description: Inhibition of MEK1/2 phosphorylation in human LOX cells at 2 to 10 uM by Western blot analysis

[13] = Plasma concentration in human HT-29 cells expressing B-Raf V600E mutant xenografted nude mouse at 50 mg/kg, po after 12 hrs; assay type: ADME, organism-based; set-up: dose 50 mg/kg, route oral
HT-29 [14] = test: Antitumor activity against human HT-29 cells expressing B-Raf V600E mutant xenografted in nude mouse assessed as tumor growth inhibition at 25 mg/kg, po bid; assay type: functional; conditions: read-out: GI
[15] = Drug level in human LOX cells expressing B-Raf V600E mutant xenografted nude mouse tumor at 100 mg/kg, po after 1 hr; assay type: ADME, organism-based, Neoplasm; set-up: dose 100 mg/kg, route oral; conditions: read-out: Drug uptake
HT-29 [16] = test: Reversible growth inhibition of human HT-29 cells expressing B-Raf V600E mutant measured up to 3 days by MTT assay; assay type: functional, cell-based
[17] = AUC (0 to 12 hrs) in human HT-29 cells expressing B-Raf V600E mutant xenografted nude mouse at 50 mg/kg, po bid; assay type: ADME, organism-based; set-up: time < 12 hr, dose 50 mg/kg, route oral; conditions: in vivo
Mus musculus [18] = test: Inhibition of MEK-mediated ERK phosphorylation in tumor of human HT-29 cells expressing B-Raf V600E mutant xenografted nude mouse at 50 mg/kg, po after 12 hrs by Western blot analysis relative to control; assay type: functional; conditions: HT-29, 12 h
MIA PaCa-2 [19] = test: Antitumor activity against human MIAPaCa2 cells expressing K-Ras G12C mutant xenografted in nude mouse assessed as tumor growth inhibition at 50 mg/kg, po bid; assay type: functional; conditions: read-out: GI
[20] = AUC (0 to 24 hrs) in human MIAPaCa2 cells expressing K-Ras G12C mutant xenografted nude mouse at 200 mg/kg, po qd; assay type: ADME, organism-based, MIA PaCa-2; set-up: time < 24 hr, dose 200 mg/kg, route oral; conditions: in vivo
Mus musculus [21] = test: Inhibition of MEK-mediated ERK phosphorylation in tumor of human LOX cells expressing B-Raf V600E mutant xenografted nude mouse at 100 mg/kg, po after 2 hrs by Western blot analysis relative to control; assay type: functional
[22] = target: T1, Dual specificity mitogen-activated protein kinase kinase; MEK1/2 (Homo sapiens); conditions: HT-29, 2 to 10 uM; remark: listed apart in the source
Description: Inhibition of MEK1/2 in human HT-29 cells assessed as upregulation of p27 expression at 2 to 10 uM by Western blot analysis

[23] = Drug level in human HT-29 cells expressing B-Raf V600E mutant xenografted nude mouse tumor at 50 mg/kg, po after 12 hrs; assay type: ADME, organism-based, Neoplasm; set-up: dose 50 mg/kg, route oral; conditions: read-out: Drug uptake
[24] = Drug level in human HT-29 cells expressing B-Raf V600E mutant xenografted nude mouse tumor at 100 mg/kg, po after 4 hrs; assay type: ADME, organism-based, Neoplasm; set-up: dose 100 mg/kg, route oral; conditions: read-out: Drug uptake
Mus musculus [25] = test: Inhibition of MEK-mediated ERK phosphorylation in tumor of human LOX cells expressing B-Raf V600E mutant xenografted nude mouse at 100 mg/kg, po after 4 hrs by Western blot analysis relative to control; assay type: functional
Mus musculus [26] = test: Toxicity in human MIAPaCa2 cells expressing K-Ras G12C mutant xenografted nude mouse assessed as gross signs of adverse effect at 500 mg/kg, po administered weekly once for 3 weeks; assay type: organism-based, MIA PaCa-2; set-up: dose 500 mg/kg, route oral; conditions: in vivo, 504 h
[27] = Plasma concentration in human LOX cells expressing B-Raf V600E mutant xenografted nude mouse at 100 mg/kg, po after 2 hrs; assay type: ADME, organism-based; set-up: dose 100 mg/kg, route oral
[28] = Plasma concentration in human HT-29 cells expressing B-Raf V600E mutant xenografted nude mouse at 100 mg/kg, po after 8 hrs; assay type: ADME, organism-based; set-up: dose 100 mg/kg, route oral
[29] = Antitumor activity against human LOX cells expressing B-Raf V600E mutant xenografted in nude mouse assessed as tumor growth inhibition at 200 mg/kg, po bid; assay type: functional; conditions: read-out: GI
[30] = Cmax in human H460 cells expressing K-Ras Q61H mutant xenografted nude mouse at 100 mg/kg, po bid; assay type: ADME, organism-based; set-up: dose 100 mg/kg, route oral; conditions: in vivo
NCI-H460 = test: Antitumor activity against human H460 cells expressing K-Ras Q61H mutant xenografted in nude mouse assessed as tumor growth inhibition at 100 mg/kg, po bid; assay type: functional; conditions: read-out: GI
MIA PaCa-2 [31] = test: Antitumor activity against human MIAPaCa2 cells expressing K-Ras G12C mutant xenografted in nude mouse assessed as tumor growth inhibition at 25 mg/kg, po bid; assay type: functional; conditions: read-out: GI
MIA PaCa-2 [32] = test: Antitumor activity against human MIAPaCa2 cells expressing K-Ras G12C mutant xenografted in nude mouse assessed as tumor growth inhibition at 500 mg/kg, po administered weekly once; assay type: functional; conditions: read-out: GI
[33] = Plasma concentration in human HT-29 cells expressing B-Raf V600E mutant xenografted nude mouse at 100 mg/kg, po after 12 hrs; assay type: ADME, organism-based; set-up: dose 100 mg/kg, route oral
[34] = Cmax in human MIAPaCa2 cells expressing K-Ras G12C mutant xenografted nude mouse at 100 mg/kg, po bid; assay type: ADME, organism-based, MIA PaCa-2; set-up: dose 100 mg/kg, route oral; conditions: in vivo
[35] = target: Dual specificity mitogen-activated protein kinase kinase 1 (Homo sapiens, UniProt Q02750); test: Inhibition of MEK1 in human LOX cells assessed as inhibition of ERK phosphorylation by Western blot analysis; assay type: cell-based
Dual specificity mitogen-activated protein kinase kinase 1, sequence (Q02750 whole entry): as the sequence (Q02750 whole entry, looked up) above

Mus musculus [36] = test: Inhibition of MEK-mediated ERK phosphorylation in tumor of human HT-29 cells expressing B-Raf V600E mutant xenografted nude mouse at 50 mg/kg, po after 4 hrs by Western blot analysis relative to control; assay type: functional; conditions: HT-29, 4 h
Mus musculus [37] = test: Inhibition of MEK-mediated ERK phosphorylation in po dosed human HT-29 cells expressing B-Raf V600E mutant xenografted nude mouse tumor by Western blot analysis; assay type: functional, organism-based

Which concentration at 8 h [1] does the source give for C[C@@H](c1ccccc1)[C@@H](C(=O)Nc1ccc(I)cc1F)N1C(=O)N[C@H](c2ccc(OC[C@H](O)CO)cc2)C1=O here?
Its concentration at 8 h is 906 ng/g.

What about the inhibition [2] of the same molecule?
Its inhibition is “Active”.

And the AUC at 12 h [3]?
The AUC at 12 h was 62900 ng·h/mL.

And the inhibition in vivo at 50 mg/kg [4]?
The inhibition in vivo at 50 mg/kg was > 100%.

What about the Activity (HT-29 [5]) of the same molecule?
The Activity was “Active”.

And the EC50 (Mus musculus [6])?
The EC50 was 3350 nM.

And the concentration at 1 h [7]?
Its concentration at 1 h is 4840 ng/mL.

What about the inhibition in vivo at 25 mg/kg [8] of the same molecule?
The inhibition in vivo at 25 mg/kg was > 100%.

What about the concentration at 2 h [9] of the same molecule?
The concentration at 2 h was 3040 ng/g.

What about the Activity (Mus musculus [10]) of the same molecule?
Its Activity is “Non-toxic”.

And the concentration at 8 h [11]?
The concentration at 8 h was 1260 ng/mL.

What about the inhibition [12] of the same molecule?
The inhibition was “Active”.

What about the concentration at 12 h [13] of the same molecule?
The concentration at 12 h was 61 ng/mL.

What about the inhibition in vivo at 25 mg/kg (HT-29 [14]) of the same molecule?
Its inhibition in vivo at 25 mg/kg is 65%.

What about the concentration at 1 h [15] of the same molecule?
Its concentration at 1 h is 1030 ng/g.

And the Activity (HT-29 [16])?
The Activity was “Active”.

What about the AUC at 12 h [17] of the same molecule?
Its AUC at 12 h is 7310 ng·h/mL.

And the inhibition in vivo at 50 mg/kg (Mus musculus [18])?
Its inhibition in vivo at 50 mg/kg is 0%.

What about the inhibition in vivo at 50 mg/kg (MIA PaCa-2 [19]) of the same molecule?
Its inhibition in vivo at 50 mg/kg is 84%.

And the AUC at 24 h [20]?
Its AUC at 24 h is 66200 ng·h/mL.

And the inhibition in vivo at 100 mg/kg (Mus musculus [21])?
The inhibition in vivo at 100 mg/kg was 86%.

And the inhibition [22]?
Its inhibition is “Active”.

And the concentration at 12 h [23]?
The concentration at 12 h was 188 ng/g.

What about the concentration at 4 h [24] of the same molecule?
The concentration at 4 h was 945 ng/g.

What about the inhibition in vivo at 100 mg/kg (Mus musculus [25]) of the same molecule?
Its inhibition in vivo at 100 mg/kg is 83%.

And the Activity (Mus musculus [26])?
The Activity was “Non-toxic”.

And the concentration at 2 h [27]?
Its concentration at 2 h is 6300 ng/mL.

And the concentration at 8 h [28]?
Its concentration at 8 h is 741 ng/mL.

What about the inhibition in vivo at 200 mg/kg [29] of the same molecule?
Its inhibition in vivo at 200 mg/kg is > 100%.

What about the Cmax [30] of the same molecule?
The Cmax was 16900 ng/mL.

And the inhibition in vivo at 100 mg/kg (NCI-H460)?
Its inhibition in vivo at 100 mg/kg is 90%.

And the inhibition in vivo at 25 mg/kg (MIA PaCa-2 [31])?
The inhibition in vivo at 25 mg/kg was 71%.

And the inhibition in vivo at 500 mg/kg (MIA PaCa-2 [32])?
The inhibition in vivo at 500 mg/kg was 42%.

What about the concentration at 12 h [33] of the same molecule?
The concentration at 12 h was 195 ng/mL.

What about the Cmax [34] of the same molecule?
The Cmax was 9650 ng/mL.

And the IC50 [35]?
Its IC50 is 22 nM.

What about the inhibition in vivo at 50 mg/kg (Mus musculus [36]) of the same molecule?
The inhibition in vivo at 50 mg/kg was 81%.

What about the EC50 (Mus musculus [37]) of the same molecule?
The EC50 was 1001 ng/g.
